Test results reported in patent US20260207623A1, “USE OF ESTETROL IN HEPATICALLY IMPAIRED PATIENTS” (ESTETRA SRL, priority 2022, published 2026).

Columns and labels:
[1] = system: female subjects with normal hepatic function, mild, moderate or severe hepatic impairment; test: Safety and tolerability (TEAEs, clinical laboratory, vital signs, physical examination) after a single oral dose of 20 mg E4 monohydrate in the hepatic impairment study; format: in vivo, human; settings: for TEAE: Back pain / TEAE: Diarrhea / TEAE: Gastrointestinal disorders / TEAE: General disorders and administration site conditions / TEAE: Haemarthrosis / TEAE: Headache / TEAE: Hypertension / TEAE: Musculoskeletal and connective tissue disorders / TEAE: Nervous system disorders / TEAE: Pain in extremity / TEAE: Pancreatitis / TEAE: Pyrexia / TEAE: Renal and urinary disorders / TEAE: Renal impairment / TEAE: Total Subjects with at Least One TEAE / TEAE: Vascular disorders / TEAE by severity: Back pain, severity Mild / TEAE by severity: Back pain, severity Moderate / TEAE by severity: Diarrhea, severity Mild / TEAE by severity: Diarrhea, severity Moderate / TEAE by severity: Gastrointestinal disorders, severity Mild / TEAE by severity: Gastrointestinal disorders, severity Moderate / TEAE by severity: General disorders and administration site conditions, severity Mild / TEAE by severity: Haemarthrosis, severity Mild / TEAE by severity: Headache, severity Mild / TEAE by severity: Headache, severity Moderate / TEAE by severity: Hypertension, severity Mild / TEAE by severity: Musculoskeletal and connective tissue disorders, severity Mild / TEAE by severity: Musculoskeletal and connective tissue disorders, severity Moderate / TEAE by severity: Nervous system disorders, severity Mild / TEAE by severity: Nervous system disorders, severity Moderate / TEAE by severity: Pain in extremity, severity Mild / TEAE by severity: Pancreatitis, severity Moderate / TEAE by severity: Pyrexia, severity Mild / TEAE by severity: Renal and urinary disorders, severity Mild / TEAE by severity: Renal impairment, severity Mild / TEAE by severity: Vascular disorders, severity Mild: single oral 20 mg
Method: This was a Phase 1, multi-centre, open-label, PK, and safety study of a single oral dose of 20 mg E4 monohydrate in female subjects with normal hepatic function (Group 1), mild hepatic impairment (Group 2), moderate hepatic impairment (Group 3), and severe hepatic impairment (Group 4), as defined using the Child-Pugh classification at Screening.
Safety and tolerability assessments consisted of treatment-emergent AEs (TEAEs), clinical laboratory, vital signs, physical examination, and gynecological examination. Assessments were performed in accordance with Table 2 and Table 3 in Section 2.5.1.
AEs/TEAEs were recorded after signing of the ICF until completion of the follow up visit. Any clinically significant observations in results of clinical laboratory, vital signs, or physical examinations were recorded as AEs.
A TEAE is defined as any event not present prior to administration of the study drug or any event already present that worsens in either severity or frequency following exposure to the study drug.
The below listed tests were to be performed by the local laboratories at time points indicated in the Schedule of Assessments (Table 2).
Systolic and diastolic blood pressure and pulse were recorded after the subject had been resting for at least 5 minutes in the supine position at time points indicated in the Schedule of Assessments (Table 2). These assessments were made using an automated device. Body temperature and respiratory rate were measured subsequently.
A complete physical examination consisting of a review of all body systems was performed at time points indicated in the Schedule of Assessments (Table 2). A symptom-directed physical examination could be conducted at any time per Investigator's discretion.
2.6.2.2 Evaluation of Safety and Tolerability Safety and tolerability were assessed through TEAEs, clinical laboratory, vital signs, and physical examination findings, and any other parameter that was relevant for safety assessment.
A listing of all individual AEs is provided. Summary tables of TEAEs are presented by system organ class (SOC) based on the MedDRA terminology list (preferred terms): a table containing the number of subjects experiencing AEs by hepatic function, a table containing the number of subjects experiencing SAEs by hepatic function (if applicable), a table by hepatic function and relationship, and a table by hepatic function and severity.

[2] = system: C-Terminal Telopeptide (CTX-1); test: Example 2 section F: C-terminal telopeptide (CTX-1), marker of bone resorption, at 15 mg and 20 mg daily doses; format: in vivo, human
Method: In order to better assess the potential for increasing the daily dose beyond the minimum effective dose of 15 mg estetrol monohydrate daily, a number of parameters were followed in a study where estetrol monohydrate was administered at the increased dose of 20 mg per day.
6. C-Terminal Telopeptide (CTX-1) (Ng/L)
CTX-1 is a specific marker of bone resorption.

[3] = Normal hepatic function (N = 8)
[4] = Severe hepatic impairment (N = 8)

SMILES: C[C@]12CC[C@@H]3c4ccc(O)cc4CC[C@H]3[C@@H]1[C@@H](O)[C@@H](O)[C@@H]2O [E4 monohydrate, estetrol monohydrate]
- TEAE: Back pain [1, 3]: 1 (12.5) n (%)
- TEAE: Diarrhea [1, 3]: 1 (12.5) n (%)
- TEAE: Gastrointestinal disorders [1, 3]: 2 (25.0) n (%)
- TEAE: General disorders and administration site conditions [1, 3]: 0 (0.0) n (%)
- TEAE: Haemarthrosis [1, 3]: 0 (0.0) n (%)
- TEAE: Headache [1, 3]: 0 (0.0) n (%)
- TEAE: Hypertension [1, 3]: 0 (0.0) n (%)
- TEAE: Musculoskeletal and connective tissue disorders [1, 3]: 1 (12.5) n (%)
- TEAE: Nervous system disorders [1, 3]: 0 (0.0) n (%)
- TEAE: Pain in extremity [1, 3]: 0 (0.0) n (%)
- TEAE: Pancreatitis [1, 3]: 1 (12.5) n (%)
- TEAE: Pyrexia [1, 3]: 0 (0.0) n (%)
- TEAE: Renal and urinary disorders [1, 3]: 0 (0.0) n (%)
- TEAE: Renal impairment [1, 3]: 0 (0.0) n (%)
- TEAE: Total Subjects with at Least One TEAE [1, 3]: 2 (25.0) n (%)
- TEAE: Vascular disorders [1, 3]: 0 (0.0) n (%)
- TEAE by severity: Back pain, severity Mild [1, 4]: 1 (12.5) n (%)
- TEAE by severity: Back pain, severity Moderate [1, 4]: 0 (0.0) n (%)
- TEAE by severity: Diarrhea, severity Mild [1, 4]: 0 (0.0) n (%)
- TEAE by severity: Diarrhea, severity Moderate [1, 4]: 0 (0.0) n (%)
- TEAE by severity: Gastrointestinal disorders, severity Mild [1, 4]: 0 (0.0) n (%)
- TEAE by severity: Gastrointestinal disorders, severity Moderate [1, 4]: 0 (0.0) n (%)
- TEAE by severity: General disorders and administration site conditions, severity Mild [1, 4]: 0 (0.0) n (%)
- TEAE by severity: Haemarthrosis, severity Mild [1, 4]: 0 (0.0) n (%)
- TEAE by severity: Headache, severity Mild [1, 4]: 0 (0.0) n (%)
- TEAE by severity: Headache, severity Moderate [1, 4]: 0 (0.0) n (%)
- TEAE by severity: Hypertension, severity Mild [1, 4]: 0 (0.0) n (%)
- TEAE by severity: Musculoskeletal and connective tissue disorders, severity Mild [1, 4]: 1 (12.5) n (%)
- TEAE by severity: Musculoskeletal and connective tissue disorders, severity Moderate [1, 4]: 0 (0.0) n (%)
- TEAE by severity: Nervous system disorders, severity Mild [1, 4]: 0 (0.0) n (%)
- TEAE by severity: Nervous system disorders, severity Moderate [1, 4]: 0 (0.0) n (%)
- TEAE by severity: Pain in extremity, severity Mild [1, 4]: 0 (0.0) n (%)
- TEAE by severity: Pancreatitis, severity Moderate [1, 4]: 0 (0.0) n (%)
- TEAE by severity: Pyrexia, severity Mild [1, 4]: 0 (0.0) n (%)
- TEAE by severity: Renal and urinary disorders, severity Mild [1, 4]: 1 (12.5) n (%)
- TEAE by severity: Renal impairment, severity Mild [1, 4]: 1 (12.5) n (%)
- TEAE by severity: Vascular disorders, severity Mild [1, 4]: 0 (0.0) n (%)
- TEAE: Back pain [1, 4]: 1 (12.5) n (%)
- TEAE: Diarrhea [1, 4]: 0 (0.0) n (%)
- TEAE: Gastrointestinal disorders [1, 4]: 0 (0.0) n (%)
- TEAE: General disorders and administration site conditions [1, 4]: 0 (0.0) n (%)
- TEAE: Haemarthrosis [1, 4]: 0 (0.0) n (%)
- TEAE: Headache [1, 4]: 0 (0.0) n (%)
- TEAE: Hypertension [1, 4]: 0 (0.0) n (%)
- TEAE: Musculoskeletal and connective tissue disorders [1, 4]: 1 (12.5) n (%)
- TEAE: Nervous system disorders [1, 4]: 0 (0.0) n (%)
- TEAE: Pain in extremity [1, 4]: 0 (0.0) n (%)
- TEAE: Pancreatitis [1, 4]: 0 (0.0) n (%)
- TEAE: Pyrexia [1, 4]: 0 (0.0) n (%)
- TEAE: Renal and urinary disorders [1, 4]: 1 (12.5) n (%)
- TEAE: Renal impairment [1, 4]: 1 (12.5) n (%)
- TEAE: Total Subjects with at Least One TEAE [1, 4]: 1 (12.5) n (%)
- TEAE: Vascular disorders [1, 4]: 0 (0.0) n (%)
- TEAE by severity: Back pain, severity Mild ([1]; Total (N = 32)): 1 (3.1) n (%)
- TEAE by severity: Back pain, severity Moderate ([1]; Total (N = 32)): 1 (3.1) n (%)
- TEAE by severity: Diarrhea, severity Mild ([1]; Total (N = 32)): 2 (6.3) n (%)
- TEAE by severity: Diarrhea, severity Moderate ([1]; Total (N = 32)): 1 (3.1) n (%)
- TEAE by severity: Gastrointestinal disorders, severity Mild ([1]; Total (N = 32)): 2 (6.3) n (%)
- TEAE by severity: Gastrointestinal disorders, severity Moderate ([1]; Total (N = 32)): 2 (6.3) n (%)
- TEAE by severity: General disorders and administration site conditions, severity Mild ([1]; Total (N = 32)): 1 (3.1) n (%)
- TEAE by severity: Haemarthrosis, severity Mild ([1]; Total (N = 32)): 1 (3.1) n (%)
- TEAE by severity: Headache, severity Mild ([1]; Total (N = 32)): 1 (3.1) n (%)
- TEAE by severity: Headache, severity Moderate ([1]; Total (N = 32)): 1 (3.1) n (%)
- TEAE by severity: Hypertension, severity Mild ([1]; Total (N = 32)): 2 (6.3) n (%)
- TEAE by severity: Musculoskeletal and connective tissue disorders, severity Mild ([1]; Total (N = 32)): 3 (9.4) n (%)
- TEAE by severity: Musculoskeletal and connective tissue disorders, severity Moderate ([1]; Total (N = 32)): 1 (3.1) n (%)
- TEAE by severity: Nervous system disorders, severity Mild ([1]; Total (N = 32)): 1 (3.1) n (%)
- TEAE by severity: Nervous system disorders, severity Moderate ([1]; Total (N = 32)): 1 (3.1) n (%)
- TEAE by severity: Pain in extremity, severity Mild ([1]; Total (N = 32)): 1 (3.1) n (%)
- TEAE by severity: Pancreatitis, severity Moderate ([1]; Total (N = 32)): 1 (3.1) n (%)
- TEAE by severity: Pyrexia, severity Mild ([1]; Total (N = 32)): 1 (3.1) n (%)
- TEAE by severity: Renal and urinary disorders, severity Mild ([1]; Total (N = 32)): 1 (3.1) n (%)
- TEAE by severity: Renal impairment, severity Mild ([1]; Total (N = 32)): 1 (3.1) n (%)
- TEAE by severity: Vascular disorders, severity Mild ([1]; Total (N = 32)): 2 (6.3) n (%)
- TEAE: Back pain ([1]; Total (N = 32)): 2 (6.3) n (%)
- TEAE: Diarrhea ([1]; Total (N = 32)): 3 (9.4) n (%)
- TEAE: Gastrointestinal disorders ([1]; Total (N = 32)): 4 (12.5) n (%)
- TEAE: General disorders and administration site conditions ([1]; Total (N = 32)): 1 (3.1) n (%)
- TEAE: Haemarthrosis ([1]; Total (N = 32)): 1 (3.1) n (%)
- TEAE: Headache ([1]; Total (N = 32)): 2 (6.3) n (%)
- TEAE: Hypertension ([1]; Total (N = 32)): 2 (6.3) n (%)
- TEAE: Musculoskeletal and connective tissue disorders ([1]; Total (N = 32)): 4 (12.5) n (%)
- TEAE: Nervous system disorders ([1]; Total (N = 32)): 2 (6.3) n (%)
- TEAE: Pain in extremity ([1]; Total (N = 32)): 1 (3.1) n (%)
- TEAE: Pancreatitis ([1]; Total (N = 32)): 1 (3.1) n (%)
- TEAE: Pyrexia ([1]; Total (N = 32)): 1 (3.1) n (%)
- TEAE: Renal and urinary disorders ([1]; Total (N = 32)): 1 (3.1) n (%)
- TEAE: Renal impairment ([1]; Total (N = 32)): 1 (3.1) n (%)
- TEAE: Total Subjects with at Least One TEAE ([1]; Total (N = 32)): 9 (28.1) n (%)
- TEAE: Vascular disorders ([1]; Total (N = 32)): 2 (6.3) n (%)
- number of TEAEs considered related to the study drug ([1]; diarrhea, mild intensity, 1 subject in the moderate group): 1 TEAE
- subjects reporting TEAE diarrhea ([1]; normal hepatic function group): 1 subjects
- overall safety and tolerability ([1]; single oral dose of 20 mg, normal hepatic function, mild, moderate or severe hepatic impairment): safe and well tolerated
- deaths, SAEs, other significant AEs ([1]; whole study, monohydrate): No deaths, SAEs, or other significant AEs occurred
- bone resorption (CTX-1) ([2]; 15 mg daily dose): small decrease of bone resorption
- bone resorption (CTX-1) ([2]; 20 mg daily dose, after 28 days of treatment, compared with 15 mg): more pronounced
